Laboratory results reported in ChEMBL document CHEMBL1130741, “Carboxy-substituted 2-azetidinones as cholesterol absorption inhibitors” (1998).

Columns and labels:
Assay type in all cases: functional, Cricetulus griseus
Cricetinae gen. sp. [1] = test: Compound was tested for percent reduction of liver cholesterol esters absorption in cholesterol fed hamster model at an oral dose of 3 mg/kg/day
Cricetinae gen. sp. [2] = test: Compound was tested for percent reduction of serum cholesterol absorption in cholesterol fed hamster model at an oral dose of 3 mg/kg/day
Cricetinae gen. sp. [3] = test: Compound was tested for percent reduction of liver cholesterol esters absorption in cholesterol fed hamster model at an oral dose of 10 mg/kg/day
Cricetinae gen. sp. [4] = test: Compound was tested for percent reduction of serum cholesterol absorption in cholesterol fed hamster model at an oral dose of 10 mg/kg/day
Cricetinae gen. sp. [5] = test: Dose required to inhibit cholesterol absorption in cholesterol fed hamster model
Cricetinae gen. sp. [6] = test: Compound was tested for percent reduction of liver cholesterol esters absorption in cholesterol fed hamster model at an oral dose of 50 mg/kg/day

Compound | Reduction (Cricetinae gen. sp. [1]) [%] | Reduction (Cricetinae gen. sp. [2]) [%] | Reduction (Cricetinae gen. sp. [3]) [%] | Reduction (Cricetinae gen. sp. [4]) [%] | Reduction (Cricetinae gen. sp. [6]) [%] | other results
COC(=O)Cc1ccc([C@@H]2[C@@H](CCCc3ccccc3)C(=O)N2c2ccc(F)cc2)cc1 | -61 | -16 | – | – | – | –
CCN(CC)C(=O)CCc1ccc([C@@H]2[C@@H](CCCc3ccccc3)C(=O)N2c2ccc(F)cc2)cc1 | – | – | -19 | 0 | – | –
COC(=O)Cc1ccc([C@@H]2[C@@H](CCCc3ccccc3)C(=O)N2c2ccc(OC)cc2)cc1 | -89 | -26 | – | – | – | ED50 (Cricetinae gen. sp. [5]): 0.95 mg/kg/day
COC(=O)C(C)(C)Oc1ccc([C@@H]2[C@@H](CCCc3ccccc3)C(=O)N2c2ccc(OC)cc2)cc1 | – | – | – | – | -80 | –
O=C(O)CCc1ccc([C@@H]2[C@@H](CCCc3ccccc3)C(=O)N2c2ccc(F)cc2)cc1 | – | – | -63 | -32 | – | –
COC(=O)/C=C/c1ccc([C@@H]2[C@@H](CCCc3ccccc3)C(=O)N2c2ccc(OC)cc2)cc1 | – | – | – | – | -90 | –
COC(=O)CCc1ccc([C@@H]2[C@@H](CCCc3ccccc3)C(=O)N2c2ccc(F)cc2)cc1 | – | – | -72 | -26 | – | –
COC(=O)CCc1ccc([C@@H]2[C@@H](CCCc3ccccc3)C(=O)N2c2ccc(OC)cc2)cc1 | -76 | -20 | – | – | – | ED50 (Cricetinae gen. sp. [5]): 0.85 mg/kg/day
CCN(CC)C(=O)Cc1ccc([C@@H]2[C@@H](CCCc3ccccc3)C(=O)N2c2ccc(F)cc2)cc1 | – | – | -19 | 0 | – | –
O=C(O)Cc1ccc([C@@H]2[C@@H](CCCc3ccccc3)C(=O)N2c2ccc(F)cc2)cc1 | – | – | -97 | -44 | – | ED50 (Cricetinae gen. sp. [5]): 1.1 mg/kg/day
COC(=O)c1ccc([C@@H]2[C@@H](CCCc3ccccc3)C(=O)N2c2ccc(F)cc2)cc1 | -16 | 0 | – | – | – | –
O=C(O)c1ccc([C@@H]2[C@@H](CCCc3ccccc3)C(=O)N2c2ccc(F)cc2)cc1 | -37 | 0 | – | – | – | –
COc1ccc(N2C(=O)[C@H](CCCc3ccccc3)[C@H]2c2ccc(OC(C)(C)C(=O)O)cc2)cc1 (racemic) | – | – | – | – | -75 | –
COC(=O)CCc1ccc([C@@H]2[C@@H](CCCc3ccccc3)C(=O)N2c2ccc(OC)cc2)cc1 (racemic) | – | – | – | – | -93 | –
COc1ccc([C@@H]2[C@@H](CCCc3ccccc3)C(=O)N2c2ccc(OC)cc2)cc1 (racemic) [SCH-48461] | – | – | – | – | -78 | –
COc1ccc([C@@H]2[C@@H](CCCc3ccccc3)C(=O)N2c2ccc(OC)cc2)cc1 [SCH-48461] | – | – | -93 | -43 | – | ED50 (Cricetinae gen. sp. [5]): 2 mg/kg/day
